Read-outs that look alike come from different tables or passages of the source. Marks after values point to notes of the source that are not given here.
Columns and labels:
Caco-2 monolayer [1] = conditions: cited from earlier work
in vitro = conditions: human; for Papp A→B: Caco-2, pH 7.4
Experimental: (§1) A method of using the medium also is part of the present invention. The following description is representative of how this would be done. Caco-2 cells (available from ATCC, Manassas, Va.) are resuspended in the HTB-10 medium and seeded on 3 μm polycarbonate 6-well Transwell® cell culture inserts (diameter 24.5 mm, Corning Costar) at a density of about 0.2×10^6 cells/cm^2. The seeding of the cells was performed on dry filters by placing 1.5 mL of the cell suspension on the apical side first, followed by addition of 2.5 mL of HTB-10 medium to the baso-lateral side.
(§2) To induce cell polarity, the volume of the medium on the apical side was decreased from 1.5 ml to 0.5 mL 48 hours post seeding, and the cells were fed primarily from the baso-lateral side. After the switch, the medium was changed every 24 hr for a total incubation period of 4 days.
(§3) The differentiation status and the monolayer integrity were monitored by measurements of transepithelial electrical resistance (TEER) and by determination of permeability of mannitol. […] The accelerated Caco-2 system was also evaluated through a validation process that was based on FDA guidelines for the Biopharmaceuticals Classification System (BCS). In that process, Caco-2 cell permeability coefficients were determined for 26 structurally diverse compounds that were then rank-ordered according to the fraction absorbed in humans. The transport studies were conducted as follows. The donor solution of the drug was placed on the apical side of a sample filter (1.5 mL) and the buffer solution (HBSS, pH 7.4) was placed on the baso-lateral side (2.5 mL). The plates were incubated at 37° C. on a shaker for 1-3 hr. Samples were collected at the designated time points and analyzed by either HPLC (uv)or radiometry (for radioactive compounds).

[2] = fraction absorbed in humans, reported in the literature; cited from earlier work
Caco-2 monolayer [3] = experiment: Permeability of model compounds in the accelerated 4-day Caco-2 system (apical to baso-lateral transport)
Experimental: as §1, §2, §3

[4] = BCS validation set, compounds rank-ordered according to fraction absorbed in humans

COCCc1ccc(OCC(O)CNC(C)C)cc1 (stereo not drawn) [Metoprolol]
Permeability class (Caco-2 monolayer [1]; [4]): High
Papp A→B (in vitro): 43.6 ×10⁻⁶ cm/s

COc1ccc2cc([C@H](C)C(=O)O)ccc2c1 [Naproxen]
% fa in humans [2]: 94-100%

CN(Cc1cnc2nc(N)nc(N)c2n1)c1ccc(C(=O)N[C@@H](CCC(=O)O)C(=O)O)cc1 [Methotraxate]
Permeability class (Caco-2 monolayer [1]; [4]): Low
% fa in humans [2]: 20-100** %
[PM × 10^−6] cm/sec (Caco-2 monolayer [3]; 4-day Caco-2 in HTB-10, donor apical, HBSS pH 7.4, 37° C., 1-3 hr, donor concentration per Table 1): 4.2 +/− 0.7 × 10^−6 cm/sec

Nc1nc2c(ncn2COCCO)c(=O)[nH]1 [Acyclovir]
Papp A→B (in vitro): 3.8 ×10⁻⁶ cm/s

Cc1cc(=O)n(-c2ccccc2)n1C [Antipyrine]
% fa in humans [2]: 97-100%

NS(=O)(=O)c1cc2c(cc1Cl)NCNS2(=O)=O [Hydrochlorthiazide]
% fa in humans [2]: 65-72%
Papp A→B (in vitro): 6.9 ×10⁻⁶ cm/s

OC[C@@H](O)[C@@H](O)[C@H](O)[C@H](O)CO [Mannitol]
Permeability class (Caco-2 monolayer [1]; [4]): Low
% fa in humans [2]: 16-26%
Papp (in vitro; Caco-2): 0.7 to 6.3 ×10⁻⁶ cm/s
Papp A→B (in vitro): 3 ×10⁻⁶ cm/s

CC(C)NCC(O)COc1ccc(CC(N)=O)cc1 (stereo not drawn) [Atenolol]
% fa in humans [2]: 50-54%

CC(C)NCC(O)COc1cccc2ccccc12 (stereo not drawn) [Propranolol]
Permeability class (Caco-2 monolayer [1]; [4]): High
Papp A→B (in vitro): 19.3 ×10⁻⁶ cm/s

CC(C)n1c(/C=C/C(O)CC(O)CC(=O)O)c(-c2ccc(F)cc2)c2ccccc21 (stereo not drawn) [Fluvastatin]
Permeability class (Caco-2 monolayer [1]; [4]): High
Papp A→B (in vitro): 10.8 ×10⁻⁶ cm/s

CC(C(=O)O)c1cccc(C(=O)c2ccccc2)c1 (stereo not drawn) [Ketoprofen]
Permeability class (Caco-2 monolayer [1]; [4]): High
Papp A→B (in vitro): 48.6 ×10⁻⁶ cm/s

C[C@](N)(Cc1ccc(O)c(O)c1)C(=O)O [L-alpha-methyldopa]
Permeability class (Caco-2 monolayer [1]; Caco-2): Low
% fa in humans [2]: 44** %
[PM × 10^−6] cm/sec (Caco-2 monolayer [3]; human, Caco-2, pH 7.4): 5.7 +/− 0.5 × 10^−6 cm/sec

CC(C)(C)NCC(O)c1cc(O)cc(O)c1 (stereo not drawn) [Terbutalin]
Permeability class (Caco-2 monolayer [1]; [4]): Medium
% fa in humans [2]: 50-73%
Papp A→B (in vitro): 5.54 ×10⁻⁶ cm/s

CC(C)(C)NC[C@H](O)COc1nsnc1N1CCOCC1 [Timolol]
Permeability class (Caco-2 monolayer [1]; [4]): Medium
% fa in humans [2]: 72-75%
Papp A→B (in vitro): 25.4 ×10⁻⁶ cm/s

CNC(=C[N+](=O)[O-])NCCSCc1ccc(CN(C)C)o1 [Ranitidine]
Permeability class (Caco-2 monolayer [1]; [4]): Medium
% fa in humans [2]: 50-61%
Papp A→B (in vitro): 2.2 ×10⁻⁶ cm/s

Cn1c(=O)c2[nH]cnc2n(C)c1=O [Theophylline]
% fa in humans [2]: 96%

PEG-4000
[PM × 10^−6] cm/sec (Caco-2 monolayer [3]; Caco-2, pH 7.4): 0.6 +/− 0.1 × 10^−6 cm/sec

PEG-400
[PM × 10^−6] cm/sec (Caco-2 monolayer [3]; Caco-2, pH 7.4): 1.1 +/− 0.1 × 10^−6 cm/sec

PEG-900
[PM × 10^−6] cm/sec (Caco-2 monolayer [3]; Caco-2, pH 7.4): 0.7 +/− 0.1 × 10^−6 cm/sec

C[C@]12CC[C@H]3[C@@H](CCC4=CC(=O)CC[C@@]43C)[C@@H]1CC[C@@H]2O [Testosterone]
% fa in humans [2]: 100%

NC(N)=Nc1nc(CSCCC(N)=NS(N)(=O)=O)cs1 [Famotidine]
Permeability class (Caco-2 monolayer [1]; [4]): Low
% fa in humans [2]: 38%
Papp A→B (in vitro): 1.36 ×10⁻⁶ cm/s

NC(=O)N1c2ccccc2C=Cc2ccccc21 [Carbamazepine]
Permeability class (Caco-2 monolayer [1]; [4]): High
% fa in humans [2]: 100%
Papp A→B (in vitro): 84.6 ×10⁻⁶ cm/s

CC1(C)S[C@@H]2[C@H](NC(=O)[C@H](N)c3ccc(O)cc3)C(=O)N2[C@H]1C(=O)O [Amoxicillin]
Permeability class (Caco-2 monolayer [1]; [4]): Low
% fa in humans [2]: 94** %
Papp A→B (in vitro): 0.02 ×10⁻⁶ cm/s

NS(=O)(=O)c1cc(C(=O)O)c(NCc2ccco2)cc1Cl [Furosemide]
% fa in humans [2]: 61%

Reference: patent US7300794B2, “Accelerated culture system for intestinal epithelial cell monolayers” (Supernus Pharmaceuticals, Inc., priority 2003, dated 2007)
